# Laboratory results as given in US20130190345A1, “MATRINIC ACID/MATRINE DERIVATIVES AND PREPARATION METHODS AND USES THEREOF” (priority 2010, published 2013).
# Experiments:
# DHBV = DHBV animal test; format: in vivo, Peking ducks
# Procedure: Infection and administration: Peking ducks (purchased from Institute of Animals, Chinese Academy of Medical Sciences) were infected via foot vein with 0.2 ml DHBV positive serum. […] The control group was administered with physiological saline (1 ml); positive control was administered with 3TC (lamivudine), in dose of 50 mg/kg (5 mg/ml, 1 ml).
# Hsc70 [1] = assay: Inhibition effects of compound on Hsc70 in Huh7.5 cultured cell (qRT-PCR, Western blotting); format: cell-based; parameters: key to Hsc70 down-regulation rate (%): “—” represents no significant inhibition rate
# HCV = assay: Inhibition effects of compounds on HCV in Huh7.5 cultured cell after HCV infection; format: cell-based
# In short: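 Huh7.5 cells, cultured 24 h, were infected with HCV at 45 IU/cell and given drug in medium for 72 h at 37° C. Intracellular HCV and GAPDH RNA quantified by one-step qRT-PCR, with inhibition analysed against virus control; three repeats.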
# 2.2.15 cells = assay: Drug TC50 by MTT detection; format: cell-based; conditions: Reed-Muench
# Hsc70 [2] = assay: Hsc70 protein in virus particles in supernatant from HCV-infected Huh7.5 cultured cell liquid; format: cell-based; conditions: HCV-infected Huh7.5 cells, 96 h, Western blotting (FIG. 8)
# Procedure: Huh7.5 cells were inoculated in an amount of 3×10^4/cm^2, cultured in 10 cm culture dish (58.1 cm^2/well) for 6 h, infected with HCV and simultaneously added with DM-122 drug solutions with different concentration and positive control Intron A, after action for 96 h, the supernatant from cultured cell liquid was subjected to ultra-high speed centrifugation to separate virus particles, Western blotting was used to analyze the contents of Hsc70 and GAPDH proteins in virus particles.
# [3] = Acute toxicity of compound in mice; format: in vivo; conditions: mouse, in vivo
# Procedure: Kunming mice (purchased from Institute of Animal, Chinese Academy of Medical Sciences), 18-20 g, were weighed and randomly divided in groups, 10 mice per group, half male and half female, intraperitoneally injected with DM122 solution, in concentration of 0, 250 mg/kg, 500 mg/kg and 1000 mg/kg once. The death of animals was observed. On the 7th day, the animals were weighed, blood samples were taken and functional indexes (GOT, GPT, BUN and CRE) of liver and kidney in blood were determined.
# Since Compound 6b had relatively high activity on anti-HBV and anti-HCV. The inventors had used it as a candidate of anti-hepatitis drug to evaluate its safety in animal body. Kunming mice were used for test of safety and acute toxicity of Compound 6b (13-methoxy matrine), via oral administration, administration doses were separately 250, 500 and 750 mg/kg once, then the mice were strictly monitored for 7 days.
# Hsc70 [4] = assay: Detection of Hsc70 gene expression level upon action of compound on 2.2.15 cells (real-time fluorescent quantified PCR); format: cell-based; conditions: 2.2.15 cells; relative to OMT (= 1)
# In short: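 2.2.15 cells grown 24 hr in 10% FCS medium, then exposed to compounds (20 mg/ml MEM stock diluted in medium) for 12, 24 or 36 hr; 400 μg/ml OMTR as control. Hsc70 mRNA and HBV DNA changes measured by real-time fluorescent quantitative PCR.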
compound,measurement,setting,value
"COc1ccc(CN2CC3CCCN4CCCC(C2CCCC(=O)O)C34)cc1 (stereo not shown) [DM-122, N-(4-methoxybenzyl) matrinic acid]","HBVDNA in liver, inhibition rate","DHBV; duckling, oral 37.5 mg/kg twice per day, 15 days (FIG. 1)",−5.14%
same,activity against hepatitis B virus in DHBV-infected ducks (HBV DNA in liver and serum),"DHBV; oral 150, 75, 37.5 mg/kg twice per day, 15 days",good activity against hepatitis B virus
same,Hsc70 down-regulation rate (%),Hsc70 [1]; 200 ug/ml (upper data),36.8 ± 1.4%
same,Hsc70 down-regulation rate (%),Hsc70 [1]; 400 ug/ml (lower data),—
same,inhibition of intracellular Hsc70 mRNA,"Hsc70 [1]; Huh7.5 cells, 24 h, qRT-PCR (FIG. 4)",dose-dependent inhibition effects
same,inhibition of intracellular Hsc70 protein,"Hsc70 [1]; Huh7.5 cells, 48 h, Western blotting (FIG. 5)",dose-dependent inhibition effects
same,HCV inhibition rate (%),HCV; 200 ug/ml (upper data),77.2 ± 4.8%
same,HCV inhibition rate (%),HCV; 400 ug/ml (lower data),88.0 ± 4.0%
same,inhibition of intracellular HCV Core and Hsc70 proteins,"HCV; HCV-infected Huh7.5 cells, 72 h, Western blotting (FIG. 7A)",dose-dependent inhibition effects
same,effect on intracellular HCV RNA,"HCV; HCV-infected Huh7.5 cells, 72 h, qRT-PCR (FIG. 6)",dose-dependent effects
same,EC50 (half effective concentration),"HCV; virus not given, stands beside HCV inhibition rate",252.35 µg/mL
same,CC50 (concentration to cause poisoning in half cells),2.2.15 cells,>1000 µg/mL
same,Hsc70 protein content in virus particles in supernatant,Hsc70 [2],reduced the Hsc70 protein content in virus particles
same,influence on body weight of mice,[3],no influence on body weight of mice
same,"influence on liver and kidney functions (GOT, GPT, BUN, CRE)",[3]; ip,no influence on liver and kidney functions
same,"Hsc70 inhibition rate (down-regulation of Hsc70 expression activity, expressed in relative OMT ratio)",Hsc70 [4],1.56
